Like-named read-outs stand apart in the source and are kept apart here.
What was measured:
TX synthase = test: Large scale screening test: TX synthase inhibition; assay type: biochemical
[1] = tested on: human platelet-rich plasma; test: Aggregation test of human platelet-rich plasma; assay type: cell-based; settings: for IC50: Homo sapiens, Platelet
Procedure: (§1) C. Platelet aggregation and ATP release reaction test
(§2) The method reported by Born (J. Physiol. 168, 178, 1963) was used to determine the platelet aggregation by a Lumi-aggregometer (Model 1020, Payton, Canada). Platelet suspension (0.4 ml) was added into a small glass tube coated with silicone, and stirred at 900 rpm with a small magnetic stirrer. Unless otherwise specified, the antagonist was added 1 minute before the inducing agent, and all the reactions were carried out at 37° C. The aggregation was calculated by following formula: […]
aggregation (% )=(light absorption before adding inducing agent-light absorption after adding inducing agent)/(light absorption before adding inducing agent-light absorption of Tyrode solution)×100%
(5 μM), Adrenaline (10 μM),

rabbit platelets = test: Aggregation of washed rabbit platelet suspension induced by AA, PAF, collagen, U-46619, ADP and thrombin; assay type: cell-based
Procedure: A. Preparation of aggregation inducing agent
1. Collagen (bovine tendon) in 15 mM aqueous acetic acid was homogenized at 4° C. to form a well dispersed suspension in 1 mg/ml and stocked at -70° C. Before using, it was thawed and well homogenized.
2. PAF was dissolved in CCl4 and stocked at […] Before using, it was diluted with deionized water.
3. […] and sodium arachidonate (AA) were dissolved in deionized water for use.
B. Preparation of platelets
A suspension of platelets was prepared according to the reported method. EDTA (100 mM) and the blood obtained from rabbit's ear vein were mixed in the ratio of 1:4, and immediately centrifuged (120× g) at room temperature for 10 minutes. Platelet-rich plasma was subjected to further centrifuge (500× g) for another 10 minutes. After the plasma was removed, the platelets in the lower layer were suspended in the Tyrode solution containing EDTA (2 mM) and bovine serum albumin (3.5 mg/ml), and subjected to centrifuge (500× g) again for 10 minutes. The platelets obtained were suspended in a Tyrode solution containing no EDTA, and was adjusted to about 4.5×10^8 cells/ml by a cell counter. 1 mM of calcium ion (Ca^2+) was added to the suspension. 30 minutes after the addition, the experiment was conducted. The composition of Tyrode […]: NaCl (136.9), KCl (2.7), NaH2 PO4 (0.4), NaHCO3 (11.9), glucose (11.1).
as §1, §2
aggregation (% )=(light absorption before adding inducing agent-light absorption after adding inducing agent)/(light absorption before adding inducing agent-light absorption of Tyrode solution)×100% […]
| Platelets were precincubated with 1a, 1b, 1c, 1e, 2 or DMSO (0.5%, | control) at 37° C. for 3 min, then the inducer was added.

TXA2 receptor = test: Large scale screening test: TXA2 receptor antagonism; assay type: biochemical
cAMP formation = cAMP formation caused by arachidonic acid (AA); assay type: cell-based; settings: for cAMP: caused by AA

COc1cc(CC(C)C(C)C(=O)c2ccc(O)c(OC)c2)ccc1O (stereo not shown) [Compound 1, cinnamophilin]
TX synthase inhibitory property (TX synthase): TX synthase inhibitory
IC50 ([1]; human platelet-rich plasma, inducer A-23187 5 μM, read-out: IC50, platelet aggregation): > 30 µM
IC50 ([1]; human platelet-rich plasma, inducer ADP 5 μM, First Phrase, read-out: IC50, platelet aggregation, first phase): > 30 µM
IC50 ([1]; human platelet-rich plasma, inducer ADP 5 μM, Second Phrase, read-out: IC50, platelet aggregation, second phase): 6 ± 0.6 µM
IC50 ([1]; human platelet-rich plasma, inducer U-46619 1 μM, read-out: IC50, platelet aggregation): 3 ± 0.4 µM
IC50 ([1]; human platelet-rich plasma, inducer adrenaline 10 μM, First Phrase, read-out: IC50, platelet aggregation, first phase): > 30 µM
IC50 ([1]; human platelet-rich plasma, inducer adrenaline 10 μM, Second Phrase, read-out: IC50, platelet aggregation, second phase): 7.6 ± 0.9 µM
IC50 ([1]; human platelet-rich plasma, inducer arachidonic acid (AA) 800 μM, read-out: IC50, platelet aggregation): 5 ± 0.4 µM
IC50 ([1]; human platelet-rich plasma, inducer collagen, read-out: IC50, platelet aggregation): 5.6 ± 0.6 µM
inhibition of U-46619 induced platelet aggregation ([1]; U-46619): potential inhibition
inhibition of second phase aggregation ([1]; human platelet-rich plasma, ADP and adrenaline): inhibit second phase aggregation
inhibition of platelet aggregation ([1]; induced by AA, ADP, collagen, U-46619, A-23187): potentially to inhibit the platelet aggregation
Aggregation (%) (rabbit platelets; inducer AA (100 μM), conc 5 μM, control 92.1 ± 1.3): 83.8 ± 4.6%
Aggregation (%) (rabbit platelets; inducer AA (100 μM), conc 10 μM, control 92.1 ± 1.3): 79.0 ± 6.3%
Aggregation (%) (rabbit platelets; inducer AA (100 μM), conc 20 μM, control 92.1 ± 1.3): 42.4 ± 3.0%
Aggregation (%) (rabbit platelets; inducer AA (100 μM), conc 50 μM, control 92.1 ± 1.3): 3.8 ± 3.5%
Aggregation (%) (rabbit platelets; inducer ADP (20 μM), conc 300 μM, control 81.6 ± 3.0): 75.6 ± 9.2%
Aggregation (%) (rabbit platelets; inducer PAF (2 ng/ml), conc 300 μM, control 91.7 ± 2.0): 83.5 ± 8.0%
Aggregation (%) (rabbit platelets; inducer U-46619 (1 μM), conc 200 μM, control 89.4 ± 1.2): 22.1 ± 2.4%
Aggregation (%) (rabbit platelets; inducer collagen (10 μg/ml), conc 50 μM, control 93.6 ± 1.0): 87.0 ± 1.6%
Aggregation (%) (rabbit platelets; inducer collagen (10 μg/ml), conc 100 μM, control 93.6 ± 1.0): 44.7 ± 10.0%
Aggregation (%) (rabbit platelets; inducer collagen (10 μg/ml), conc 200 μM, control 93.6 ± 1.0): 0.0 ± 0.0%
Aggregation (%) (rabbit platelets; inducer thrombin (0.1 U/ml), conc 300 μM, control 94.8 ± 2.0): 94.6 ± 1.4%
TXA2 receptor antagonizing property (TXA2 receptor): TXA2 receptor antagonizing properties
cAMP level (cAMP formation; 0.03-10 μM, AA): increase PGE2 and cAMP levels
cAMP (cAMP formation; conc 1 μM): 22 ± 3 pmol/mL
cAMP (cAMP formation; conc 3 μM): 29 ± 3 pmol/mL
cAMP (cAMP formation; conc 10 μM): 35 ± 2 pmol/mL
